Results reported in US11306117B2, “Whitening composition containing novel quercetin-based compound” (AMOREPACIFIC CORPORATION, priority 2017, dated 2022).

System: healthy adult examinees
Experiment: HRIPT (Human repeated insult patch tests), skin accumulated stimulus
Format: in vivo
Design: key to skin reactivity (ICDRG criteria): −: negative (no response); ±: doubtful or slight erythema, etc.; +: weak reaction (which is accompanied with no phlyctenule), erythema, papule; ++: severe reaction (which is accompanied with phylctenule), erythema, papule, phlyctenule; +++: strong reaction, bullae reaction
Conditions: for average reactivity: 9 patches, 15 examinees; for Number of examinees who exhibited ±, +, or ++ reactivity 1st: 1st patch; for Number of examinees who exhibited ±, +, or ++ reactivity 2nd: 2nd patch; for Number of examinees who exhibited ±, +, or ++ reactivity 3rd: 3rd patch; for Number of examinees who exhibited ±, +, or ++ reactivity 4th: 4th patch; for Number of examinees who exhibited ±, +, or ++ reactivity 5th: 5th patch; for Number of examinees who exhibited ±, +, or ++ reactivity 6th: 6th patch; for Number of examinees who exhibited ±, +, or ++ reactivity 7th: 7th patch; for Number of examinees who exhibited ±, +, or ++ reactivity 8th: 8th patch; for Number of examinees who exhibited ±, +, or ++ reactivity 9th: 9th patch
Method: HRIPT (Human repeated insult patch tests) was conducted in order to identify skin accumulated stimulus of quercetin3-O-[3-O″-(E)-p-coumaroyl][β-D-glucopyranosyl-(1→3)-O-α-L-rhamnopyranosyl-(1→6)-O-β-D-glucopyranoside] and quercetin3-O-[3-O″-(E)-p-coumaroyl][α-L-rhamnopyranosyl-(1→6)-O-β-D-glucopyranoside]and to calculate the concentration range that can be used in skin.
Specifically, 15 healthy adult examinees were randomly selected, and test compositions in which the compounds were respectively comprised in an amount of 0.5 wt. %, 1 wt. %, and 3 wt. % (the compositions for skin, comprising an emulsifying agent, a stabilizer, purified water, etc. in addition to the compounds) were dropped in the amount of 20 μl per chamber (IQ chamber, Epitest Ltd, Finland), and patched on the right site of the upper back of the examinees, and then, after 24 hours, the patch was replaced with a new patch. A total of 9 patches were conducted, three times a week for total 3 weeks, in such manner, the skin reactions before and after patch were examined every time, and the skin reactions until 48 hours after removing the final patch were observed, and the average reactivity was observed.
The skin reaction was determined according to the criteria of International Contact Dermatitis Research Group (ICDRG). In the above table, “New Material 31” refers to quercetin3-O-[3-O″-(E)-p-coumaroyl][β-D-glucopyranosyl-(1→3)-O-α-L-rhamnopyranosyl-(1→6)-O-β-D-glucopyranoside], and “New Material 32” refers to quercetin3-O-[3-O″-(E)-p-coumaroyl][α-L-rhamnopyranosyl-(1→6)-O-β-D-glucopyranoside].

In the case of `C[C@@H]1O[C@@H](OC[C@H]2O[C@@H](Oc3c(-c4ccc(O)c(O)c4)oc4cc(O)cc(O)c4c3=O)[C@H](O)[C@@H](OC(=O)/C=C/c3ccc(O)cc3)[C@@H]2O)[C@H](O)[C@H](O)[C@H]1O` [New Material 32, quercetin3-O-[3-O″-(E)-p-coumaroyl][α-L-rhamnopyranosyl-(1→6)-O-β-D-glucopyranoside]], the average reactivity (0.5 wt.% in test composition) is reported as 0, the “skin reactivity (ICDRG criteria)” value (0.5 wt.%, 1 wt.% and 3 wt.%, 9 patches in 3 weeks) is reported as “−” and the “Number of examinees who exhibited ±, +, or ++ reactivity 1st” value (from here on “Number … or ++ reactivity 1st”) (0.5 wt.%, line 1 of 3 (±)) is reported as 0 number. The “Number … or ++ reactivity 1st” value (0.5 wt.%, line 2 of 3 (+)) was 0 number, the “Number … or ++ reactivity 1st” value (0.5 wt.%, line 3 of 3 (++)) was 0 number and the “Number of examinees who exhibited ±, +, or ++ reactivity 2nd” value (“Number … or ++ reactivity 2nd” below) (0.5 wt.%, line 1 of 3 (±)) was 0 number. The “Number … or ++ reactivity 2nd” value (0.5 wt.%, line 2 of 3 (+)) was 0 number, the “Number … or ++ reactivity 2nd” value (0.5 wt.%, line 3 of 3 (++)) was 0 number and the “Number of examinees who exhibited ±, +, or ++ reactivity 3rd” value (shortened to “Number … or ++ reactivity 3rd”) (0.5 wt.%, line 1 of 3 (±)) was 0 number. For the same compound, the “Number … or ++ reactivity 3rd” value (0.5 wt.%, line 2 of 3 (+)) was 0 number, the “Number … or ++ reactivity 3rd” value (0.5 wt.%, line 3 of 3 (++)) was 0 number and the “Number of examinees who exhibited ±, +, or ++ reactivity 4th” value (“Number … or ++ reactivity 4th” for short) (0.5 wt.%, line 1 of 3 (±)) was 0 number. The “Number … or ++ reactivity 4th” value (0.5 wt.%, line 2 of 3 (+)) was 0 number, the “Number … or ++ reactivity 4th” value (0.5 wt.%, line 3 of 3 (++)) was 0 number and the “Number of examinees who exhibited ±, +, or ++ reactivity 5th” value (“Number … or ++ reactivity 5th” below) (0.5 wt.%, line 1 of 3 (±)) was 0 number. The “Number … or ++ reactivity 5th” value (0.5 wt.%, line 2 of 3 (+)) was 0 number, the “Number … or ++ reactivity 5th” value (0.5 wt.%, line 3 of 3 (++)) was 0 number and the “Number of examinees who exhibited ±, +, or ++ reactivity 6th” value (shortened to “Number … or ++ reactivity 6th”) (0.5 wt.%, line 1 of 3 (±)) was 0 number. The “Number … or ++ reactivity 6th” value (0.5 wt.%, line 2 of 3 (+)) was 0 number, the “Number … or ++ reactivity 6th” value (0.5 wt.%, line 3 of 3 (++)) was 0 number and the “Number of examinees who exhibited ±, +, or ++ reactivity 7th” value (“Number … or ++ reactivity 7th” for short) (0.5 wt.%, line 1 of 3 (±)) was 0 number. For the same compound, the “Number … or ++ reactivity 7th” value (0.5 wt.%, line 2 of 3 (+)) was 0 number, the “Number … or ++ reactivity 7th” value (0.5 wt.%, line 3 of 3 (++)) was 0 number and the “Number of examinees who exhibited ±, +, or ++ reactivity 8th” value (“Number … or ++ reactivity 8th” below) (0.5 wt.%, line 1 of 3 (±)) was 0 number. For the same compound, the “Number … or ++ reactivity 8th” value (0.5 wt.%, line 2 of 3 (+)) was 0 number, the “Number … or ++ reactivity 8th” value (0.5 wt.%, line 3 of 3 (++)) was 0 number and the “Number of examinees who exhibited ±, +, or ++ reactivity 9th” value (shortened to “Number … or ++ reactivity 9th”) (0.5 wt.%, line 1 of 3 (±)) was 0 number. The “Number … or ++ reactivity 9th” value (0.5 wt.%, line 2 of 3 (+)) was 0 number, the “Number … or ++ reactivity 9th” value (0.5 wt.%, line 3 of 3 (++)) was 0 number and the average reactivity (1 wt.% in test composition) was 0. For the same compound, the “Number … or ++ reactivity 1st” value (1 wt.%, line 1 of 3 (±)) was 0 number, the “Number … or ++ reactivity 1st” value (1 wt.%, line 2 of 3 (+)) was 0 number and the “Number … or ++ reactivity 1st” value (1 wt.%, line 3 of 3 (++)) was 0 number. For the same compound, the “Number … or ++ reactivity 2nd” value (1 wt.%, line 1 of 3 (±)) was 0 number, the “Number … or ++ reactivity 2nd” value (1 wt.%, line 2 of 3 (+)) was 0 number and the “Number … or ++ reactivity 2nd” value (1 wt.%, line 3 of 3 (++)) was 0 number. For the same compound, the “Number … or ++ reactivity 3rd” value (1 wt.%, line 1 of 3 (±)) was 0 number, the “Number … or ++ reactivity 3rd” value (1 wt.%, line 2 of 3 (+)) was 0 number and the “Number … or ++ reactivity 3rd” value (1 wt.%, line 3 of 3 (++)) was 0 number. For the same compound, the “Number … or ++ reactivity 4th” value (1 wt.%, line 1 of 3 (±)) was 0 number, the “Number … or ++ reactivity 4th” value (1 wt.%, line 2 of 3 (+)) was 0 number and the “Number … or ++ reactivity 4th” value (1 wt.%, line 3 of 3 (++)) was 0 number. For the same compound, the “Number … or ++ reactivity 5th” value (1 wt.%, line 1 of 3 (±)) was 0 number, the “Number … or ++ reactivity 5th” value (1 wt.%, line 2 of 3 (+)) was 0 number and the “Number … or ++ reactivity 5th” value (1 wt.%, line 3 of 3 (++)) was 0 number. For the same compound, the “Number … or ++ reactivity 6th” value (1 wt.%, line 1 of 3 (±)) was 0 number, the “Number … or ++ reactivity 6th” value (1 wt.%, line 2 of 3 (+)) was 0 number and the “Number … or ++ reactivity 6th” value (1 wt.%, line 3 of 3 (++)) was 0 number. For the same compound, the “Number … or ++ reactivity 7th” value (1 wt.%, line 1 of 3 (±)) was 0 number, the “Number … or ++ reactivity 7th” value (1 wt.%, line 2 of 3 (+)) was 0 number and the “Number … or ++ reactivity 7th” value (1 wt.%, line 3 of 3 (++)) was 0 number. For the same compound, the “Number … or ++ reactivity 8th” value (1 wt.%, line 1 of 3 (±)) was 0 number, the “Number … or ++ reactivity 8th” value (1 wt.%, line 2 of 3 (+)) was 0 number and the “Number … or ++ reactivity 8th” value (1 wt.%, line 3 of 3 (++)) was 0 number. The “Number … or ++ reactivity 9th” value (1 wt.%, line 1 of 3 (±)) was 0 number, the “Number … or ++ reactivity 9th” value (1 wt.%, line 2 of 3 (+)) was 0 number and the “Number … or ++ reactivity 9th” value (1 wt.%, line 3 of 3 (++)) was 0 number. For the same compound, the average reactivity (3 wt.% in test composition) was 0, the “Number … or ++ reactivity 1st” value (3 wt.%, line 1 of 3 (±)) was 0 number and the “Number … or ++ reactivity 1st” value (3 wt.%, line 2 of 3 (+)) was 0 number. The “Number … or ++ reactivity 1st” value (3 wt.%, line 3 of 3 (++)) was 0 number, the “Number … or ++ reactivity 2nd” value (3 wt.%, line 1 of 3 (±)) was 0 number and the “Number … or ++ reactivity 2nd” value (3 wt.%, line 2 of 3 (+)) was 0 number. For the same compound, the “Number … or ++ reactivity 2nd” value (3 wt.%, line 3 of 3 (++)) was 0 number, the “Number … or ++ reactivity 3rd” value (3 wt.%, line 1 of 3 (±)) was 0 number and the “Number … or ++ reactivity 3rd” value (3 wt.%, line 2 of 3 (+)) was 0 number. For the same compound, the “Number … or ++ reactivity 3rd” value (3 wt.%, line 3 of 3 (++)) was 0 number, the “Number … or ++ reactivity 4th” value (3 wt.%, line 1 of 3 (±)) was 0 number and the “Number … or ++ reactivity 4th” value (3 wt.%, line 2 of 3 (+)) was 0 number. The “Number … or ++ reactivity 4th” value (3 wt.%, line 3 of 3 (++)) was 0 number, the “Number … or ++ reactivity 5th” value (3 wt.%, line 1 of 3 (±)) was 0 number and the “Number … or ++ reactivity 5th” value (3 wt.%, line 2 of 3 (+)) was 0 number. For the same compound, the “Number … or ++ reactivity 5th” value (3 wt.%, line 3 of 3 (++)) was 0 number, the “Number … or ++ reactivity 6th” value (3 wt.%, line 1 of 3 (±)) was 0 number and the “Number … or ++ reactivity 6th” value (3 wt.%, line 2 of 3 (+)) was 0 number. For the same compound, the “Number … or ++ reactivity 6th” value (3 wt.%, line 3 of 3 (++)) was 0 number, the “Number … or ++ reactivity 7th” value (3 wt.%, line 1 of 3 (±)) was 0 number and the “Number … or ++ reactivity 7th” value (3 wt.%, line 2 of 3 (+)) was 0 number. The “Number … or ++ reactivity 7th” value (3 wt.%, line 3 of 3 (++)) was 0 number, the “Number … or ++ reactivity 8th” value (3 wt.%, line 1 of 3 (±)) was 0 number and the “Number … or ++ reactivity 8th” value (3 wt.%, line 2 of 3 (+)) was 0 number. The “Number … or ++ reactivity 8th” value (3 wt.%, line 3 of 3 (++)) was 0 number, the “Number … or ++ reactivity 9th” value (3 wt.%, line 1 of 3 (±)) was 0 number and the “Number … or ++ reactivity 9th” value (3 wt.%, line 2 of 3 (+)) was 0 number. The “Number … or ++ reactivity 9th” value (3 wt.%, line 3 of 3 (++)) was 0 number.
